In the Kinase Knowledgebase extract (Sharma et al. 2016):

target: PIK3CA (human) (UniProt P42336); test: Assessment of PI3KCA Kinase Activity
Sequence (P42336 whole entry, looked up): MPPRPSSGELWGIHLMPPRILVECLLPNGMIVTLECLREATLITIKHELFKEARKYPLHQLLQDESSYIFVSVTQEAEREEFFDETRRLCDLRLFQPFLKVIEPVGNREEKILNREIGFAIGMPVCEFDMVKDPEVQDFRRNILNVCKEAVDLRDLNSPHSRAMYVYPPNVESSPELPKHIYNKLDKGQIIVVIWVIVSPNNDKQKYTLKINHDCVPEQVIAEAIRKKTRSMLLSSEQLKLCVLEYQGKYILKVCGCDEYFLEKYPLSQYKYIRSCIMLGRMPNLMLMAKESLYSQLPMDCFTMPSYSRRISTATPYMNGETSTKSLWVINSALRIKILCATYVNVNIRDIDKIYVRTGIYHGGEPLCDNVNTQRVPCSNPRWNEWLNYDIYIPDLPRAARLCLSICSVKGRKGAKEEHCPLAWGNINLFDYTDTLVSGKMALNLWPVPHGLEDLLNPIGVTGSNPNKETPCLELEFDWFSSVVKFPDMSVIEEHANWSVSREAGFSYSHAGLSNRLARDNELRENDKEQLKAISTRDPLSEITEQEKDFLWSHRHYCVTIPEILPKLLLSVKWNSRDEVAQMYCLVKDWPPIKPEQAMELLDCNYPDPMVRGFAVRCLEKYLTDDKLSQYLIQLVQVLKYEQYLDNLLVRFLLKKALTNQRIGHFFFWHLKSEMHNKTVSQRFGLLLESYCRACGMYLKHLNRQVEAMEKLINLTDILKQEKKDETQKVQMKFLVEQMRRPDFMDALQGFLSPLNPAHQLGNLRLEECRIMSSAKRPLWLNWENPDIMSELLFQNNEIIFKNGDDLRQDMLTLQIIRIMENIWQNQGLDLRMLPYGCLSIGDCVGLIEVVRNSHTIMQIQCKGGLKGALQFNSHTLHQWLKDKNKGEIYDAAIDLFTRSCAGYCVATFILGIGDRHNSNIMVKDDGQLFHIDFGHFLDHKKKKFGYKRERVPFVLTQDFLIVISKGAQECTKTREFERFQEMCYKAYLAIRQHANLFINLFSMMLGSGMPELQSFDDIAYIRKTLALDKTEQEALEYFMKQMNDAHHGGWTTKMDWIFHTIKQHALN

Q: Which IC50 does the source give for N#Cc1c(-c2ccnc(NC(N)=O)c2)sc(-c2nnc[nH]2)c1-c1ccc(Cl)cc1Cl here?
A: The IC50 was less than 100 nM.

Q: Cc1nn2ccc(N3CCOCC3)cc2c1-c1nc(-c2ccccc2)c(-c2nc[nH]n2)s1 was tested. Which IC50 did it give?
A: Its IC50 is less than 100 nM.

Q: How did the IC50 turn out when N#Cc1c(-c2ccnc(NCCCO)n2)sc(-c2nnc[nH]2)c1-c1ccc(Cl)cc1Cl was run?
A: The IC50 was less than 100 nM.

Q: With CC(C)(C)OC(=O)Nc1cc(-c2sc(-c3ncc[nH]3)c(-c3ccc(Cl)cc3Cl)c2C#N)ccn1 as the compound, how does the IC50 read?
A: The IC50 was less than 100 nM.

Q: Cc1nc2sccn2c1-c1nc(-c2ccccc2)c(-c2nnc[nH]2)s1 was tested. Which IC50 did it give?
A: The IC50 was less than 100 nM.

Q: Which IC50 does the source give for CC(=O)Nc1cc(-c2sc(-c3nccn3Cc3ccc(F)cc3)c(-c3ccc(Cl)cc3Cl)c2C#N)ccn1 here?
A: Its IC50 is 100 to 1000 nM.

Q: For Clc1ccc(-c2nc(-c3ccnc4[nH]ccc34)sc2-c2ncc[nH]2)c(Cl)c1, which IC50 is on record?
A: Its IC50 is less than 100 nM.

Q: Which IC50 does the source give for CC(=O)Nc1cc(-c2nc(-c3cccc(C(F)(F)F)c3)c(-c3ncc[nH]3)s2)ccn1 here?
A: Its IC50 is 100 to 1000 nM.

Q: How did the IC50 turn out when CC(=O)Nc1cc(-c2nc(-c3ccc(O)cc3)c(-c3ncc[nH]3)s2)ccn1 was run?
A: The IC50 was 100 to 1000 nM.

Q: CNC(=O)Nc1cc(-c2sc(-c3ncc[nH]3)c(-c3ccc(Cl)cc3Cl)c2C#N)ccn1 was tested. Which IC50 did it give?
A: The IC50 was less than 100 nM.

Q: For CC(C)C(=O)Nc1cc(-c2sc(-c3ncc[nH]3)c(-c3ccc(Cl)cc3Cl)c2C#N)ccn1, which IC50 is on record?
A: The IC50 was less than 100 nM.

Q: With CCNC(=O)Nc1cc(-c2nc(OCC)c(-c3nc[nH]n3)s2)ccn1 as the compound, how does the IC50 read?
A: Its IC50 is 100 to 1000 nM.

Q: For Clc1cc(-c2nc(-c3ccccc3)c(-c3nnc[nH]3)s2)ccn1, which IC50 is on record?
A: The IC50 was 100 to 1000 nM.

Q: With Cc1nn2ccc(OCCN3CCCCC3)cc2c1-c1nc(-c2ccccc2F)c(-c2nc[nH]n2)s1 as the compound, how does the IC50 read?
A: Its IC50 is less than 100 nM.

Q: With Cc1nc2ccc(CN(CCN)Cc3ccccc3)cn2c1-c1nc(-c2ccccc2)c(-c2nnc[nH]2)s1 as the compound, how does the IC50 read?
A: The IC50 was less than 100 nM.

Q: For Cc1nn2ccccc2c1-c1nc(-c2cnc3[nH]ccc3c2)c(-c2nc[nH]n2)s1, which IC50 is on record?
A: The IC50 was less than 100 nM.

Q: Which IC50 does the source give for COc1ccc(-c2nc(-c3ccnc(NC(C)=O)c3)sc2-c2ncc[nH]2)cc1 here?
A: Its IC50 is 100 to 1000 nM.

Q: With CC(C)CC(=O)Nc1cc(-c2sc(-c3ncc[nH]3)c(-c3ccc(Cl)cc3Cl)c2C#N)ccn1 as the compound, how does the IC50 read?
A: Its IC50 is less than 100 nM.

Q: For CC(=O)Nc1cc(-c2nc(Br)c(-c3ncc[nH]3)s2)ccn1, which IC50 is on record?
A: The IC50 was 100 to 1000 nM.

Q: Which IC50 does the source give for Nc1cc(-c2nc(-c3ccc(Cl)cc3Cl)c(-c3ncc[nH]3)s2)ncn1 here?
A: Its IC50 is 100 to 1000 nM.

Q: With N#Cc1c(-c2ccnc(NC(N)=O)c2)sc(-c2ccn[nH]2)c1-c1ccc(Cl)cc1Cl as the compound, how does the IC50 read?
A: The IC50 was less than 100 nM.

Q: Which IC50 does the source give for N#Cc1c(-c2ccnc(NC(=O)CO)c2)sc(-c2nnc[nH]2)c1-c1ccc(Cl)cc1Cl here?
A: Its IC50 is less than 100 nM.

Q: For Cc1nn2ccccc2c1-c1nc(-c2ccccc2C(F)(F)F)c(-c2nnc[nH]2)s1, which IC50 is on record?
A: The IC50 was less than 100 nM.

Q: With Clc1ccc(-c2cc(-c3ncnc4[nH]cnc34)sc2-c2ncc[nH]2)c(Cl)c1 as the compound, how does the IC50 read?
A: The IC50 was 100 to 1000 nM.

Q: With Cc1nn2ccccc2c1-c1nc(-c2cnn(CCN3CCOCC3)c2)c(-c2nc[nH]n2)s1 as the compound, how does the IC50 read?
A: The IC50 was 100 to 1000 nM.

Q: For Cc1nn2ccc(OCCN3CCC(F)(F)CC3)cc2c1-c1nc(-c2ccccc2)c(-c2nc[nH]n2)s1, which IC50 is on record?
A: Its IC50 is less than 100 nM.

Q: For CN(C)CC(=O)Nc1cc(-c2sc(-c3nnc[nH]3)c(-c3ccc(Cl)cc3Cl)c2C#N)ccn1, which IC50 is on record?
A: Its IC50 is 100 to 1000 nM.

Q: N#Cc1c(-c2ccnc(NC(=O)C3CC3)c2)sc(-c2ccn[nH]2)c1-c1ccc(Cl)cc1Cl was tested. Which IC50 did it give?
A: Its IC50 is less than 100 nM.

Q: Which IC50 does the source give for N=C(N)Nc1cc(-c2cc(-c3ccc(Cl)cc3Cl)c(-c3ncc[nH]3)s2)ccn1 here?
A: The IC50 was 100 to 1000 nM.

Q: How did the IC50 turn out when N#Cc1c(-c2nc(N)ncc2Cl)sc(-c2nnc[nH]2)c1-c1ccc(Cl)cc1Cl was run?
A: Its IC50 is 100 to 1000 nM.

Q: With O=C(CCSc1ccccc1)Nc1cc(-c2nc(-c3ccccc3)c(-c3nnc[nH]3)s2)ccn1 as the compound, how does the IC50 read?
A: Its IC50 is 100 to 1000 nM.

Q: How did the IC50 turn out when N#Cc1c(-c2ccnc(N)n2)sc(C(N)=O)c1-c1ccc(Cl)cc1Cl was run?
A: The IC50 was less than 100 nM.

Q: Which IC50 does the source give for CC(=O)Nc1cc(-c2nc(-c3ccc(F)cc3F)c(-c3ncc[nH]3)s2)ccn1 here?
A: Its IC50 is less than 100 nM.

Q: Cc1nn2ccccc2c1-c1nc(-c2ccc(F)cc2)c(-c2nnc[nH]2)s1 was tested. Which IC50 did it give?
A: Its IC50 is less than 100 nM.

Q: Which IC50 does the source give for O=C1CCc2c(-c3cc(-c4ccc(Cl)cc4Cl)c(-c4ncc[nH]4)s3)ccnc2N1 here?
A: Its IC50 is less than 100 nM.

Q: Which IC50 does the source give for CCOC(=O)Nc1cc(-c2nc(OCC)c(-c3nc[nH]n3)s2)ccn1 here?
A: Its IC50 is less than 100 nM.

Q: How did the IC50 turn out when Cc1nn2ccccc2c1-c1nc(-c2cccc(C(F)(F)F)c2)c(-c2nc[nH]n2)s1 was run?
A: The IC50 was 100 to 1000 nM.

Q: Which IC50 does the source give for O=C(CCN1CCOCC1)Nc1cc(-c2nc(-c3ccccc3)c(-c3nnc[nH]3)s2)ccn1 here?
A: Its IC50 is 100 to 1000 nM.
